{
  "source": "ChEMBL document CHEMBL2203224",
  "about": "“Diversity of polyphenol action in Caenorhabditis elegans: between toxicity and longevity” (J Nat Prod, 2011)",
  "key": {"[1]": {"tested_on": "Caenorhabditis elegans", "assay": "Increase of lifespan of L4 larvae of Caenorhabditis elegans assessed as lifespan increasing concentration after 8 hrs", "assay_type": "functional"}, "[2]": {"tested_on": "Caenorhabditis elegans", "assay": "Reduction of initial reproduction rate in Caenorhabditis elegans assessed as first egg deposition at 200 uM after 85 hrs", "assay_type": "functional, organism-based"}, "[3]": {"tested_on": "Caenorhabditis elegans", "assay": "Increase of frequency of pharyngeal pumping in Caenorhabditis elegans at 200 uM on 3rd to 9th day of adulthood", "assay_type": "functional, organism-based"}, "[4]": {"tested_on": "Caenorhabditis elegans", "assay": "Reduction of body length of L4 larvae of Caenorhabditis elegans at 200 uM by microscopic analysis", "assay_type": "functional, organism-based"}, "[5]": {"tested_on": "Caenorhabditis elegans", "assay": "Reduction of frequency of pharyngeal pumping in Caenorhabditis elegans at 200 uM on 3rd to 9th day of adulthood", "assay_type": "functional, organism-based"}, "[6]": {"tested_on": "Caenorhabditis elegans", "assay": "Increase of lifespan of L4 larvae of Caenorhabditis elegans at 35 degC after 8 hrs", "assay_type": "functional, organism-based"}, "[7]": {"tested_on": "Caenorhabditis elegans", "assay": "Increase of lifespan of Caenorhabditis elegans assessed as trolox equivalent of lipid soluble antioxidant metabolites at 200 uM by photochemiluminescence assay", "assay_type": "functional, organism-based"}, "[8]": {"tested_on": "Caenorhabditis elegans", "assay": "Increase of lifespan of L4 larvae of Caenorhabditis elegans after 8 hrs in presence of H2O2", "assay_type": "functional, organism-based"}, "[9]": {"tested_on": "Caenorhabditis elegans", "assay": "Increase of lifespan of L4 larvae of Caenorhabditis elegans after 8 hrs", "assay_type": "functional, organism-based"}, "[10]": {"tested_on": "Caenorhabditis elegans", "assay": "Increase of lifespan of Caenorhabditis elegans assessed as ascorbic acid equivalent of water soluble antioxidant metabolites at 200 uM by photochemiluminescence assay", "assay_type": "functional, organism-based"}, "[11]": {"tested_on": "Caenorhabditis elegans", "assay": "Toxicity in L4 larvae of Caenorhabditis elegans at 800 uM after 8 hrs", "assay_type": "organism-based", "settings": "in vivo"}, "[12]": {"tested_on": "Caenorhabditis elegans", "assay": "Reduction of body length of L4 larvae of Caenorhabditis elegans at 50 uM by microscopic analysis", "assay_type": "functional, organism-based"}, "[13]": {"tested_on": "Caenorhabditis elegans", "assay": "Reduction of initial reproduction rate in Caenorhabditis elegans assessed as first egg deposition at 50 uM after 85 hrs", "assay_type": "functional, organism-based"}, "[14]": {"tested_on": "Caenorhabditis elegans", "assay": "Increase of lifespan of L4 larvae of Caenorhabditis elegans at 50 uM in presence of heat killed bacteria", "assay_type": "functional, organism-based"}, "[15]": {"tested_on": "Caenorhabditis elegans", "assay": "[…] assessed as ascorbic acid equivalent of water soluble antioxidant metabolites at 50 uM by photochemiluminescence assay", "assay_type": "functional, organism-based"}, "[16]": {"tested_on": "Caenorhabditis elegans", "assay": "Reduction of frequency of pharyngeal pumping in Caenorhabditis elegans at 50 uM on 3rd to 9th day of adulthood", "assay_type": "functional, organism-based"}, "[17]": {"tested_on": "Caenorhabditis elegans", "assay": "[…] assessed as ascorbic acid equivalent of water soluble antioxidant metabolites at 300 uM by photochemiluminescence assay", "assay_type": "functional, organism-based"}, "[18]": {"tested_on": "Caenorhabditis elegans", "assay": "Increase of lifespan of L4 larvae of Caenorhabditis elegans at 300 uM after 8 hrs in presence of H2O2", "assay_type": "functional, organism-based"}, "[19]": {"tested_on": "Caenorhabditis elegans", "assay": "Increase of mean lifespan of L4 larvae of Caenorhabditis elegans harboring eat-2 (ad465) at 300 uM after 8 hrs", "assay_type": "functional"}, "[20]": {"tested_on": "Caenorhabditis elegans", "assay": "Increase of lifespan of L4 larvae of Caenorhabditis elegans at 300 uM at 35 degC after 8 hrs", "assay_type": "functional, organism-based"}, "[21]": {"tested_on": "Caenorhabditis elegans", "assay": "Increase of body length of L4 larvae of Caenorhabditis elegans at 300 uM by microscopic analysis", "assay_type": "functional, organism-based"}, "[22]": {"tested_on": "Caenorhabditis elegans", "assay": "Reduction of initial reproduction rate in Caenorhabditis elegans assessed as first egg deposition at 300 uM after 85 hrs", "assay_type": "functional, organism-based"}, "[23]": {"tested_on": "Caenorhabditis elegans", "assay": "Increase of frequency of pharyngeal pumping in Caenorhabditis elegans at 300 uM on 9th day of adulthood", "assay_type": "functional, organism-based"}, "[24]": {"tested_on": "Caenorhabditis elegans", "assay": "Increase of lifespan of L4 larvae of Caenorhabditis elegans at 300 uM in presence of heat killed bacteria", "assay_type": "functional, organism-based"}, "[25]": {"tested_on": "Caenorhabditis elegans", "assay": "[…] assessed as trolox equivalent of lipid soluble antioxidant metabolites at 300 uM by photochemiluminescence assay", "assay_type": "functional, organism-based"}, "[26]": {"tested_on": "Caenorhabditis elegans", "assay": "Reduction of frequency of pharyngeal pumping in Caenorhabditis elegans at 300 uM on 3rd to 9th day of adulthood", "assay_type": "functional, organism-based"}, "[27]": {"tested_on": "Caenorhabditis elegans", "assay": "Increase of median lifespan of L4 larvae of Caenorhabditis elegans harboring eat-2 (ad465) at 300 uM after 8 hrs", "assay_type": "functional"}, "[28]": {"tested_on": "Caenorhabditis elegans", "assay": "Reduction of body length of L4 larvae of Caenorhabditis elegans at 100 uM by microscopic analysis", "assay_type": "functional, organism-based"}, "[29]": {"tested_on": "Caenorhabditis elegans", "assay": "[…] assessed as trolox equivalent of lipid soluble antioxidant metabolites at 100 uM by photochemiluminescence assay", "assay_type": "functional, organism-based"}, "[30]": {"tested_on": "Caenorhabditis elegans", "assay": "Reduction of triglyceride level in Caenorhabditis elegans at 100 uM", "assay_type": "functional, organism-based"}, "[31]": {"tested_on": "Caenorhabditis elegans", "assay": "Increase of mean lifespan of L4 larvae of Caenorhabditis elegans harboring mev-1 (kn1) mutant at 100 uM after 8 hrs", "assay_type": "functional"}, "[32]": {"tested_on": "Caenorhabditis elegans", "assay": "[…] assessed as ascorbic acid equivalent of water soluble antioxidant metabolites at 100 uM by photochemiluminescence assay", "assay_type": "functional, organism-based"}, "[33]": {"tested_on": "Caenorhabditis elegans", "assay": "Reduction of frequency of pharyngeal pumping in Caenorhabditis elegans at 100 uM on 3rd to 9th day of adulthood", "assay_type": "functional, organism-based"}, "[34]": {"tested_on": "Caenorhabditis elegans", "assay": "Increase of mean lifespan of L4 larvae of wild type Caenorhabditis elegans at 100 uM after 8 hrs", "assay_type": "functional"}, "[35]": {"tested_on": "Caenorhabditis elegans", "assay": "Reduction of initial reproduction rate in Caenorhabditis elegans assessed as first egg deposition at 100 uM after 85 hrs", "assay_type": "functional, organism-based"}},
  "note": "Activity calls are given as the source filed them. No cut-off for these calls is given here.",
  "data": [
    {"smiles": "Oc1cc(O)c2c(c1)OC(c1ccc(O)c(O)c1)C(O)C2", "note": "(stereo not drawn) [CATECHIN]", "values": [
      {"measurement": "Activity", "setting": "[1]", "value": 200, "unit": "µM"},
      {"measurement": "Activity", "setting": "[2]", "value": "inactive"},
      {"measurement": "Activity", "setting": "[3]", "value": "Active"},
      {"measurement": "Activity", "setting": "[4]", "value": "Active"},
      {"measurement": "Activity", "setting": "[5]", "value": "inactive"},
      {"measurement": "Activity", "setting": "[6]", "value": "Active"},
      {"measurement": "Activity", "setting": "[7]", "value": "inactive"},
      {"measurement": "Activity", "setting": "[8]", "value": "Active"},
      {"measurement": "Activity", "setting": "[9]", "value": "Active"},
      {"measurement": "Activity", "setting": "[10]", "value": "inactive"}
    ]},
    {"smiles": "Oc1cc(O)c2c(c1)O[C@H](c1ccc(O)c(O)c1)[C@@H](O)C2", "note": "[CATECHIN]", "values": [
      {"measurement": "Activity", "setting": "[11]", "value": "Non-toxic"}
    ]},
    {"smiles": "O=c1oc2c(O)c(O)cc3c(=O)oc4c(O)c(O)cc1c4c23", "note": "[ELLAGIC ACID]", "values": [
      {"measurement": "Activity", "setting": "[1]", "value": 50, "unit": "µM"},
      {"measurement": "Activity", "setting": "[12]", "value": "Active"},
      {"measurement": "Activity", "setting": "[13]", "value": "Active"},
      {"measurement": "Activity", "setting": "[14]", "value": "Active"},
      {"measurement": "Activity", "setting": "[11]", "value": "Toxic"},
      {"measurement": "Activity", "setting": "[8]", "value": "inactive"},
      {"measurement": "Activity", "setting": "[15]", "value": "Active"},
      {"measurement": "Activity", "setting": "[16]", "value": "inactive"}
    ]},
    {"smiles": "O=C(O)c1cc(O)c(O)c(O)c1", "note": "[GALLIC ACID]", "values": [
      {"measurement": "Activity", "setting": "[17]", "value": "inactive"},
      {"measurement": "Activity", "setting": "[18]", "value": "inactive"},
      {"measurement": "Activity", "setting": "[1]", "value": 300, "unit": "µM"},
      {"measurement": "Activity", "setting": "[19]", "value": 7, "unit": "%"},
      {"measurement": "Activity", "setting": "[20]", "value": "inactive"},
      {"measurement": "Activity", "setting": "[21]", "value": "Active"},
      {"measurement": "Activity", "setting": "[22]", "value": "Active"},
      {"measurement": "Activity", "setting": "[6]", "value": "Active"},
      {"measurement": "Activity", "setting": "[23]", "value": "Active"},
      {"measurement": "Activity", "setting": "[11]", "value": "Non-toxic"},
      {"measurement": "Activity", "setting": "[24]", "value": "Active"},
      {"measurement": "Activity", "setting": "[25]", "value": "inactive"},
      {"measurement": "Activity", "setting": "[8]", "value": "Active"},
      {"measurement": "Activity", "setting": "[9]", "value": "Active"},
      {"measurement": "Activity", "setting": "[26]", "value": "inactive"},
      {"measurement": "Activity", "setting": "[27]", "value": 11, "unit": "%"}
    ]},
    {"smiles": "O=C(OC[C@H]1O[C@@H](OC(=O)c2cc(O)c(O)c(OC(=O)c3cc(O)c(O)c(O)c3)c2)[C@H](OC(=O)c2cc(O)c(O)c(OC(=O)c3cc(O)c(O)c(O)c3)c2)[C@@H](OC(=O)c2cc(O)c(O)c(OC(=O)c3cc(O)c(O)c(O)c3)c2)[C@@H]1OC(=O)c1cc(O)c(O)c(OC(=O)c2cc(O)c(O)c(O)c2)c1)c1cc(O)c(O)c(OC(=O)c2cc(O)c(O)c(O)c2)c1", "note": "[TANNIC ACID]", "values": [
      {"measurement": "Activity", "setting": "[1]", "value": 100, "unit": "µM"},
      {"measurement": "Activity", "setting": "[28]", "value": "Active"},
      {"measurement": "Activity", "setting": "[29]", "value": "Active"},
      {"measurement": "Activity", "setting": "[30]", "value": "Active"},
      {"measurement": "Activity", "setting": "[6]", "value": "Active"},
      {"measurement": "Activity", "setting": "[31]", "value": 3.2, "unit": "%"},
      {"measurement": "Activity", "setting": "[32]", "value": "Active"},
      {"measurement": "Activity", "setting": "[11]", "value": "Toxic"},
      {"measurement": "Activity", "setting": "[33]", "value": "inactive"},
      {"measurement": "Activity", "setting": "[34]", "value": 17.6, "unit": "%"},
      {"measurement": "Activity", "setting": "[35]", "value": "Active"},
      {"measurement": "Activity", "setting": "[8]", "value": "inactive"},
      {"measurement": "Activity", "setting": "[9]", "value": "Active"}
    ]}
  ]
}
